# PMC8994094 (Molecular Diversity, 2022)
# Values joined by “and” are separate entries in the source; they are usually repeats but may differ in a detail not shown here. Equal values may be shown once.
# Columns and labels:
# hCA II = hCA II (Homo sapiens, UniProt P00918); assay: hCA II esterase activity/kinetic assay; type: biochemical; conditions: for hCA II Inhibition type: Lineweaver-Burk; for Selectivity index AAZ/hCA II: ratio of KI of acetazolamide to KI of compound; for Selectivity index hCAI/hCA II: ratio of KI values
# [1] = target: AChE from Electrophorus electricus (Electrophorus electricus, UniProt O42275); assay: AChE activity/kinetic assay; type: biochemical; conditions: for AChE Inhibition type: Lineweaver-Burk; for Selectivity index THA/AChE: ratio of KI of tacrine to KI of compound
# hCA I = hCA I (Homo sapiens, UniProt P00915); assay: hCA I esterase activity/kinetic assay; type: biochemical; conditions: for hCA I Inhibition type: Lineweaver-Burk; for Selectivity index AAZ/hCA I: ratio of KI of acetazolamide to KI of compound; for Selectivity index hCA II/hCA I: ratio of KI values
# [2] = system: cortex neuron cells and neuroblastoma SH-SY5Y cell line; assay: MTT cytotoxicity test; type: cell-based; conditions: for cell viability at low concentrations: at 10 and 100 μM; for toxicity at effective concentrations on target enzymes: effective concentrations on AChE and hCAs
# Chain of hCA I (P00915 whole entry): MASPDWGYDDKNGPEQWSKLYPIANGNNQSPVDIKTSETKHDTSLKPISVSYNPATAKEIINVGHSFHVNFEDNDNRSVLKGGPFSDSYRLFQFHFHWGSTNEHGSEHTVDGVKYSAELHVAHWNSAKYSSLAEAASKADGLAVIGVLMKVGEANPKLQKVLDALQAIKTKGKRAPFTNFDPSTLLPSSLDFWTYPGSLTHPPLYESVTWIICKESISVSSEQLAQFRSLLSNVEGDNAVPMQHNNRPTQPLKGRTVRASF
# Chain of AChE from Electrophorus electricus (O42275 24-633): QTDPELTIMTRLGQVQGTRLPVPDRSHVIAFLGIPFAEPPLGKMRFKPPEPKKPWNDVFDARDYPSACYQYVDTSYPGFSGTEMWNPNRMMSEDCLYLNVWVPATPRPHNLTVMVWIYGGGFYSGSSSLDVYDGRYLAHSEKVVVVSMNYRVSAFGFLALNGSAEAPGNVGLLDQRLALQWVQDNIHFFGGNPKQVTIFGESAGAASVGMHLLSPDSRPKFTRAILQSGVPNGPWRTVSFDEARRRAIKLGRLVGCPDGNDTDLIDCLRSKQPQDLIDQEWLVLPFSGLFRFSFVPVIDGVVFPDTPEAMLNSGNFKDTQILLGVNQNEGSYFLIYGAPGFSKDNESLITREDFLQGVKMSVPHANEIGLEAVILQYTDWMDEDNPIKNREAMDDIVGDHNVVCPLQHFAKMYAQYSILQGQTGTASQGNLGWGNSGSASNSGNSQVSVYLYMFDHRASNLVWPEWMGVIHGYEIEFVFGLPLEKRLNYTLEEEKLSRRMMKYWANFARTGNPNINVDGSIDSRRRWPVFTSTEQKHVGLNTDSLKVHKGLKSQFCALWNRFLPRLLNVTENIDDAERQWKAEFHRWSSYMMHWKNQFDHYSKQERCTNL
SMILES,Ki (hCA II),hCA II Inhibition type (hCA II),Selectivity index AAZ/hCA II (hCA II),Selectivity index hCAI/hCA II (hCA II),Ki [1],AChE Inhibition type [1],Selectivity index THA/AChE [1],Ki (hCA I),hCA I Inhibition type (hCA I),Selectivity index AAZ/hCA I (hCA I),Selectivity index hCA II/hCA I (hCA I),cell viability at low concentrations [2],toxicity at effective concentrations on target enzymes [2]
"CCSc1nnc(-c2ccc(S(=O)(=O)NC(=O)c3ccc(C)cc3)cc2)o1 [6b, N-([4-(5-(ethylthio)-1,3,4-oxadiazol-2-yl)phenyl]sulfonyl)-4-methylbenzamide]",17.8 ± 0.23 nM,Competitive,5.51,3.34,47 ± 1.71 nM,Competitive,3.30,59.62 ± 0.53 nM,Noncompetitive,7.37,0.30,–,–
"CCCCCCCC(=O)NS(=O)(=O)c1ccc(-c2nnc(SCC)o2)cc1 [6h, N-([4-(5-(ethylthio)-1,3,4-oxadiazol-2-yl)phenyl]sulfonyl)octanamide]",120.8 ± 0.34 nM,Noncompetitive,0.81,0.29,23.1 ± 0.77 nM,Competitive,6.7 and 6.72,34.6 ± 0.51 nM,Competitive,12.69,3.49,high cell viability,non-toxic
"CCCCCCCCCCCC(=O)NS(=O)(=O)c1ccc(-c2nnc(SCC)o2)cc1 [6j, N-([4-(5-(ethylthio)-1,3,4-oxadiazol-2-yl)phenyl]sulfonyl)dodecanamide]",29.4 ± 0.13 nM,Competitive,3.34,1.05,46.7 ± 1.64 nM,Competitive,3.33,31 ± 0.41 nM,Competitive,14.16,0.95,–,–
"CCCCC(=O)NS(=O)(=O)c1ccc(-c2nnc(SCC)o2)cc1 [6e, N-([4-(5-(ethylthio)-1,3,4-oxadiazol-2-yl)phenyl]sulfonyl)pentanamide]",37.24 ± 0.14 nM,Competitive,2.64,1.27,41.2 ± 0.95 nM,Noncompetitive,3.77,47.15 ± 0.36 nM,Competitive,9.31,0.79,–,–
"CCCCCCCCC(=O)NS(=O)(=O)c1ccc(-c2nnc(SCC)o2)cc1 [6i, N-([4-(5-(ethylthio)-1,3,4-oxadiazol-2-yl)phenyl]sulfonyl)nonanamide]",112.7 ± 0.36 nM,Competitive,0.87,0.34,47.6 ± 1.75 nM,Competitive,3.27,38.4 ± 0.46 nM,Competitive,11.44,2.93,–,–
"CCCC(=O)NS(=O)(=O)c1ccc(-c2nnc(SCC)o2)cc1 [6d, N-([4-(5-(ethylthio)-1,3,4-oxadiazol-2-yl)phenyl]sulfonyl)butyramide]",23.2 ± 0.26 nM,Competitive,4.24,0.81,48.4 ± 1.75 nM,Competitive,3.21,18.7 ± 0.21 nM,Competitive,23.5 and 23.54,1.24,high cell viability,non-toxic
"CCCCCCC(=O)NS(=O)(=O)c1ccc(-c2nnc(SCC)o2)cc1 [6g, N-([4-(5-(ethylthio)-1,3,4-oxadiazol-2-yl)phenyl]sulfonyl)heptanamide]",30.71 ± 0.09 nM,Competitive,3.20,0.75,49.7 ± 2.13 nM,Competitive,3.12,23 ± 0.29 nM,Competitive,19.09,1.33,–,–
"CCSc1nnc(-c2ccc(S(=O)(=O)NC(=O)c3ccccc3)cc2)o1 [6a, N-([4-(5-(ethylthio)-1,3,4-oxadiazol-2-yl)phenyl]sulfonyl)benzamide]",9.33 ± 0.13 nM,Competitive,10.5 and 10.53,2.32,52.5 ± 1.27 nM,Competitive,2.96,21.6 ± 0.25 nM,Competitive,20.29,0.43,high cell viability,non-toxic
"CCCCCC(=O)NS(=O)(=O)c1ccc(-c2nnc(SCC)o2)cc1 [6f, N-([4-(5-(ethylthio)-1,3,4-oxadiazol-2-yl)phenyl]sulfonyl)hexanamide]",29.19 ± 0.1 nM,Competitive,3.37,1.13,39.3 ± 1.13 nM,Competitive,3.95,33.1 ± 0.47 nM,Competitive,13.27,0.88,–,–
